Our source for the survival and inhibition values is ChEMBL document CHEMBL1149051, “Isolation of flavins from the Amazonian shrub Faramea guianesis” (1994).

Format in all cases: functional
The test system of experiment [1] is Leishmania amazonensis. The experiment is described as follows: Antileishmanial activity against Leishmania amazonensis H142 Guianese amastigotes in BALB/c mouse macrophages assessed as survival of peritoneal macrophages at 0.25 mg/ml relative to control.
In experiment [2] the test system is Leishmania amazonensis. Briefly: Antileishmanial activity against Leishmania amazonensis H142 Guianese amastigotes in BALB/c mouse macrophages assessed as inhibition of infection at 0.05 mg/ml relative to control.
Experiment [3] deals with Leishmania amazonensis. The experiment is described as follows: Antileishmanial activity against Leishmania amazonensis H142 Guianese amastigotes in BALB/c mouse macrophages assessed as inhibition of infection at 0.02 mg/ml relative to control.
The test system of experiment [4] is Leishmania amazonensis. Briefly: Antileishmanial activity against Leishmania amazonensis H142 Guianese amastigotes in BALB/c mouse macrophages assessed as inhibition of infection at 0.04 mg/ml relative to control.

Take `Oc1ccc(C2CCc3c(O)cc(O)cc3O2)cc1` (centres undefined): in the experiment on Leishmania amazonensis [1], the survival at 250 µg/mL was 0%. Also, the inhibition at 50 µg/mL with Leishmania amazonensis [2] stood at 57%. Moreover, the inhibition at 20 µg/mL with Leishmania amazonensis [3] worked out at 100%. In the experiment on Leishmania amazonensis [4], the inhibition at 40 µg/mL worked out at 100%.
